Measurements taken from ChEMBL document CHEMBL1201862, “PubChem BioAssay data set” (2004).
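Where inhibition never reached the appropriate level, the endpoint shown equals the highest concentration tested. Otherwise, values were interpolated linearly from a five-concentration, 48-hour dose response in 96-well plates. GI50 marks 50% less growth.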 The source made the active and inactive calls. No stated cut-off is given here; in the data, active = GI50 up to about 1.1 µM and inactive = higher.

How the values were obtained:
Assay in all cases: NCI anticancer screen, dose series, 48 h
786-0 = tested on: 786-0
A498 = tested on: A498
A549 = tested on: A549
ACHN = tested on: ACHN
CAKI-1 = tested on: CAKI-1
CCRF-CEM = tested on: CCRF-CEM
COLO 205 = tested on: COLO 205
DU-145 = tested on: DU-145
EKVX = tested on: EKVX
HCC 2998 = tested on: HCC 2998
HCT-116 = tested on: HCT-116
HCT-15 = tested on: HCT-15
HL-60 = tested on: HL-60
HOP-62 = tested on: HOP-62
HOP-92 = tested on: HOP-92
HT-29 = tested on: HT-29
Hs-578T = tested on: Hs-578T
IGROV-1 = tested on: IGROV-1
K562 = tested on: K562
KM12 = tested on: KM12
LOX IMVI = tested on: LOX IMVI
M14 = tested on: M14
MCF7 = tested on: MCF7
MDA-MB-231 = tested on: MDA-MB-231
MDA-MB-435 = tested on: MDA-MB-435
MDA-N = tested on: MDA-N
MOLT-4 = tested on: MOLT-4
Malme-3M = tested on: Malme-3M
NCI-H226 = tested on: NCI-H226
NCI-H23 = tested on: NCI-H23
NCI-H460 = tested on: NCI-H460
NCI-H522 = tested on: NCI-H522
NCI/ADR-RES = tested on: NCI/ADR-RES
OVCAR-3 = tested on: OVCAR-3
OVCAR-4 = tested on: OVCAR-4
OVCAR-5 = tested on: OVCAR-5
OVCAR-8 = tested on: OVCAR-8
PC-3 = tested on: PC-3
RPMI-8226 = tested on: RPMI-8226
RXF 393 = tested on: RXF 393
SF-268 = tested on: SF-268
SF-295 = tested on: SF-295
SF-539 = tested on: SF-539
SK-MEL-28 = tested on: SK-MEL-28
SK-MEL-2 = tested on: SK-MEL-2
SK-MEL-5 = tested on: SK-MEL-5
SK-OV-3 = tested on: SK-OV-3
SN12C = tested on: SN12C
SNB-75 = tested on: SNB-75
SR = tested on: SR
SW-620 = tested on: SW-620
T47D = tested on: T47D
TK-10 = tested on: TK-10
U-251 = tested on: U-251
UACC-257 = tested on: UACC-257
UACC-62 = tested on: UACC-62
UO-31 = tested on: UO-31
BT-549 = tested on: BT-549
SNB-19 = tested on: SNB-19

CC(NNC(=O)c1ccncc1)c1cccc(C(F)(F)F)c1 (configuration not stated)
GI50 (786-0): > 100 µM (inactive)
GI50 (A498): > 100 µM (inactive)
GI50 (A549): > 100 µM (inactive)
GI50 (ACHN): > 100 µM (inactive)
GI50 (CAKI-1): > 100 µM (inactive)
GI50 (CCRF-CEM): > 100 µM (inactive)
GI50 (COLO 205): > 100 µM (inactive)
GI50 (DU-145): > 100 µM (inactive)
GI50 (EKVX): > 100 µM (inactive)
GI50 (HCC 2998): > 100 µM (inactive)
GI50 (HCT-116): > 100 µM (inactive)
GI50 (HCT-15): > 100 µM
GI50 (HL-60): > 100 µM (inactive)
GI50 (HOP-62): > 100 µM (inactive)
GI50 (HOP-92): > 100 µM (inactive)
GI50 (HT-29): > 100 µM (inactive)
GI50 (Hs-578T): > 100 µM (inactive)
GI50 (IGROV-1): > 100 µM (inactive)
GI50 (K562): > 100 µM (inactive)
GI50 (KM12): > 100 µM (inactive)
GI50 (LOX IMVI): > 100 µM (inactive)
GI50 (M14): > 100 µM (inactive)
GI50 (MCF7): > 100 µM (inactive)
GI50 (MDA-MB-231): > 100 µM (inactive)
GI50 (MDA-MB-435): > 100 µM (inactive)
GI50 (MDA-N): > 100 µM (inactive)
GI50 (MOLT-4): > 100 µM (inactive)
GI50 (Malme-3M): > 100 µM (inactive)
GI50 (NCI-H226): > 100 µM (inactive)
GI50 (NCI-H23): > 100 µM (inactive)
GI50 (NCI-H460): > 100 µM (inactive)
GI50 (NCI-H522): > 100 µM (inactive)
GI50 (NCI/ADR-RES): > 100 µM (inactive)
GI50 (OVCAR-3): 0.265 µM (active)
GI50 (OVCAR-4): > 100 µM (inactive)
GI50 (OVCAR-5): > 100 µM (inactive)
GI50 (OVCAR-8): > 100 µM (inactive)
GI50 (PC-3): > 100 µM (inactive)
GI50 (RPMI-8226): > 100 µM (inactive)
GI50 (RXF 393): > 100 µM (inactive)
GI50 (SF-268): > 100 µM (inactive)
GI50 (SF-295): > 100 µM (inactive)
GI50 (SF-539): > 100 µM (inactive)
GI50 (SK-MEL-28): > 100 µM (inactive)
GI50 (SK-MEL-2): > 100 µM (inactive)
GI50 (SK-MEL-5): > 100 µM (inactive)
GI50 (SK-OV-3): > 100 µM (inactive)
GI50 (SN12C): > 100 µM (inactive)
GI50 (SNB-75): > 100 µM (inactive)
GI50 (SR): > 100 µM (inactive)
GI50 (SW-620): > 100 µM (inactive)
GI50 (T47D): > 100 µM (inactive)
GI50 (TK-10): > 100 µM (inactive)
GI50 (U-251): > 100 µM (inactive)
GI50 (UACC-257): > 100 µM (inactive)
GI50 (UACC-62): > 100 µM (inactive)
GI50 (UO-31): > 100 µM (inactive)

CC1(C)C(=O)C2(N)CCC1C2 (configuration not stated)
GI50 (786-0): > 100 µM (inactive)
GI50 (A498): > 10 µM (inactive)
GI50 (ACHN): > 100 µM (inactive)
GI50 (BT-549): > 100 µM (inactive)
GI50 (CAKI-1): > 100 µM (inactive)
GI50 (CCRF-CEM): > 100 µM (inactive)
GI50 (COLO 205): > 100 µM (inactive)
GI50 (DU-145): > 100 µM (inactive)
GI50 (HCC 2998): > 100 µM (inactive)
GI50 (HCT-116): > 100 µM (inactive)
GI50 (HCT-15): > 100 µM
GI50 (HOP-92): > 100 µM (inactive)
GI50 (KM12): > 100 µM (inactive)
GI50 (LOX IMVI): > 100 µM (inactive)
GI50 (MDA-MB-231): > 100 µM (inactive)
GI50 (MDA-MB-435): > 100 µM (inactive)
GI50 (MDA-N): > 100 µM (inactive)
GI50 (NCI-H226): > 100 µM (inactive)
GI50 (NCI-H23): > 100 µM (inactive)
GI50 (NCI-H460): > 100 µM (inactive)
GI50 (NCI/ADR-RES): > 100 µM (inactive)
GI50 (OVCAR-4): > 100 µM (inactive)
GI50 (OVCAR-8): > 100 µM (inactive)
GI50 (RPMI-8226): > 100 µM (inactive)
GI50 (SF-268): > 100 µM (inactive)
GI50 (SK-MEL-28): > 100 µM (inactive)
GI50 (SN12C): > 100 µM (inactive)
GI50 (SNB-19): > 100 µM (inactive)
GI50 (SNB-75): > 100 µM (inactive)
GI50 (SR): > 100 µM (inactive)
GI50 (T47D): > 100 µM (inactive)
GI50 (TK-10): > 100 µM (inactive)
GI50 (U-251): > 100 µM (inactive)
GI50 (UACC-257): > 100 µM (inactive)
GI50 (UACC-62): > 100 µM (inactive)
GI50 (UO-31): > 100 µM (inactive)

N#CC1(C#N)C(c2ccccc2)NC23CCCCC2C1(C#N)C(=O)N3 (configuration not stated)
GI50 (786-0): > 100 µM (inactive)
GI50 (A498): > 100 µM (inactive)
GI50 (A549): > 100 µM (inactive)
GI50 (ACHN): > 100 µM (inactive)
GI50 (BT-549): > 100 µM (inactive)
GI50 (CAKI-1): > 100 µM (inactive)
GI50 (CCRF-CEM): 51.6 µM (inactive)
GI50 (COLO 205): > 100 µM (inactive)
GI50 (DU-145): > 100 µM (inactive)
GI50 (EKVX): > 100 µM (inactive)
GI50 (HCC 2998): > 100 µM (inactive)
GI50 (HCT-116): > 100 µM (inactive)
GI50 (HCT-15): > 100 µM
GI50 (HOP-62): > 100 µM (inactive)
GI50 (HOP-92): > 100 µM (inactive)
GI50 (HT-29): > 100 µM (inactive)
GI50 (IGROV-1): > 100 µM (inactive)
GI50 (K562): > 100 µM (inactive)
GI50 (KM12): > 100 µM (inactive)
GI50 (M14): > 100 µM (inactive)
GI50 (MCF7): > 100 µM (inactive)
GI50 (MDA-MB-231): > 100 µM (inactive)
GI50 (MDA-MB-435): > 100 µM (inactive)
GI50 (MDA-N): > 100 µM (inactive)
GI50 (MOLT-4): > 100 µM (inactive)
GI50 (Malme-3M): > 100 µM (inactive)
GI50 (NCI-H226): > 100 µM (inactive)
GI50 (NCI-H23): > 100 µM (inactive)
GI50 (NCI-H460): > 100 µM (inactive)
GI50 (NCI-H522): > 100 µM (inactive)
GI50 (NCI/ADR-RES): > 100 µM (inactive)
GI50 (OVCAR-3): > 100 µM (inactive)
GI50 (OVCAR-4): > 100 µM (inactive)
GI50 (OVCAR-5): > 100 µM (inactive)
GI50 (OVCAR-8): > 100 µM (inactive)
GI50 (PC-3): > 100 µM (inactive)
GI50 (RPMI-8226): > 100 µM (inactive)
GI50 (RXF 393): > 100 µM (inactive)
GI50 (SF-268): > 100 µM (inactive)
GI50 (SF-295): > 100 µM (inactive)
GI50 (SF-539): > 100 µM (inactive)
GI50 (SK-MEL-28): > 100 µM (inactive)
GI50 (SK-MEL-2): > 100 µM (inactive)
GI50 (SK-OV-3): > 100 µM (inactive)
GI50 (SN12C): > 100 µM (inactive)
GI50 (SNB-19): > 100 µM (inactive)
GI50 (SNB-75): > 100 µM (inactive)
GI50 (SR): 57.8 µM (inactive)
GI50 (SW-620): > 100 µM (inactive)
GI50 (T47D): > 100 µM (inactive)
GI50 (U-251): > 100 µM (inactive)
GI50 (UACC-257): > 100 µM (inactive)
GI50 (UACC-62): > 100 µM (inactive)
GI50 (UO-31): > 100 µM (inactive)
